# Assay results taken from PMC11614110, “Crystal structure of a short-chain dehydrogenase from Burkholderia cenocepacia J2315 in complex with NADP^+ and benzoic acid” (Acta Crystallographica Section F: Structural Biology …, 2024).
# T1: BcSDR (short-chain dehydrogenase reductase from B. cenocepacia J2315) (Burkholderia cenocepacia, UniProt B4EFS5)
# T1 construct: gene BCAM2128; vector pBG1861; expressed in E. coli BL21(DE3) R3 Rosetta; homodimer
# T1 sequence (B4EFS5 1-237): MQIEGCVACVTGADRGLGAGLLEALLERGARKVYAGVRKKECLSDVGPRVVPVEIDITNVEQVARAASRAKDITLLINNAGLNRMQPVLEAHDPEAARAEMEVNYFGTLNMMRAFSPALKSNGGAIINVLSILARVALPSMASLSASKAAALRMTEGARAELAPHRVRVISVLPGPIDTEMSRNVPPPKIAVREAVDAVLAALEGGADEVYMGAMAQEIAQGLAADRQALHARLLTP
# Experiments:
# [1] = biological target: T1, BcSDR (short-chain dehydrogenase reductase from B. cenocepacia J2315); experiment: X-ray crystal structure, […] A; assay type: binding; details: pH 4.2, 290 K
# [2] = biological target: the molecule itself; experiment: crystal structure; sitting-drop vapor diffusion, 290 K; 23.45 mg/ml protein, 5 mM NADP+; 40% PEG 300, 100 mM sodium phosphate dibasic/citric acid pH 4.2; space group P212121, two molecules per asymmetric unit; dimer assignment supported by PDBePISA
molecule,measurement,setting,value
O=C(O)c1ccccc1 [benzoic acid],"X-ray crystal structure, 1.40 A","[1]; not added, co-purified ligand, active site, NADP+ bound",BcSDR co-crystallized with a molecule of benzoic acid bound in the active site
NC(=O)c1ccc[n+]([C@@H]2O[C@H](COP(=O)(O)OP(=O)(O)OC[C@H]3O[C@@H](n4cnc5c(N)ncnc54)[C@H](OP(=O)(O)O)[C@@H]3O)[C@@H](O)[C@H]2O)c1 [NADP^+],"X-ray crystal structure, 1.40 A","[1]; 5 mM NADP+ in co-crystallization drop, coenzyme site, both chains",The structure of BcSDR showed clear electron density for NADP^+ in the coenzyme-binding site
"short-chain dehydrogenase reductase (SDR) from Burkholderia cenocepacia J2315 (enzyme, Burkholderia cenocepacia (strain J2315), putative short-chain dehydrogenase reductase, Burkholderia cenocepacia J2315, UniProt B4EFS5; full-length gene stated to encode amino acids 1-237; Crystallised with NADP+ and a benzoic acid ligand; a phosphate ion lies at the dimer interface; also called BcSDR; His-BcSDR; source: Escherichia coli BL21(DE3) R3 Rosetta, purified (Ni2+ IMAC, SEC on Superdex 75); not shown: His6, N-terminal, kept) MQIEGCVACVTGADRGLGAGLLEALLERGARKVYAGVRKKECLSDVGPRVVPVEIDITNVEQVARAASRAKDITLLINNAGLNRMQPVLEAHDPEAARAEMEVNYFGTLNMMRAFSPALKSNGGAIINVLSILARVALPSMASLSASKAAALRMTEGARAELAPHRVRVISVLPGPIDTEMSRNVPPPKIAVREAVDAVLAALEGGADEVYMGAMAQEIAQGLAADRQALHARLLTP",binding result,[2],binds
